System: urinary phosphate
Assay: In vivo phosphate binding: urinary phosphate levels in rats fed test compound in diet
Parameters: species or system Sprague Dawley (SD) rats
Settings: SD rats, urine days 5 and 6, cellulose control
Procedure: House male Sprague Dawley (SD) rats were used for the experiments. The rats were placed singly in wire-bottom cages, fed with Purina 5002 diet, and allowed to acclimate for at least 5 days prior to experimental use.
To establish baseline phosphorus excretion, the rats were placed in metabolic cages for 48 hours. Their urine was collected and its phosphorus content analyzed with a Hitachi analyzer to determine phosphorus excretion in mg/day. Any rats with outlying values were excluded; and the remainder of the rats was distributed into groups.
Purina 5002 was used as the standard diet. The compound being tested was mixed with Purina 5002 to result in a final concentration by weight as noted in the table. Cellulose at 0.5% by weight was used as a negative control. For each rat, 200 g of diet was prepared.
Each rat was weighed and placed on the standard diet. After 4 days the standard diet was replaced with the treatment diet (or control diet for the control group). On days 5 and 6, urine samples from the rats at 24 hours (+/−30 minutes) were collected and analyzed. The test rats were again weighed, and any weight loss or gain was calculated. Any remaining food was also weighed to calculate the amount of food consumed per day. A change in phosphorus excretion relative to baseline and cellulose negative control was calculated using Excel program.

SMILES | % Urinary Phosphate Relative to that of Control Animals (2.38 % of diet) [%] | % Urinary Phosphate Relative to that of Control Animals (0.20 % of diet) [%] | % Urinary Phosphate Relative to that of Control Animals (0.25 % of diet) [%] | % Urinary Phosphate Relative to that of Control Animals (0.30 % of diet) [%] | % Urinary Phosphate Relative to that of Control Animals (0.40 % of diet) [%] | % Urinary Phosphate Relative to that of Control Animals (1.00 % of diet) [%]
[Cl-].[Cl-].[Mg+2] [MgCl2] | 57.0 |  |  |  |  | 
[Mg+2].[O-2] [MgO] |  | 61.6 | 69.3 | 54.8 | 26.1 | 3.6

— US20090162314A1, “Magnesium-Containing Polymers for the Treatment of Hyperphosphatemia” (priority 2005, published 2009)
